Our source for the Activity values is ChEMBL document CHEMBL2331128, “Nebulosides A-B, novel triterpene saponins from under-ground parts of Gypsophila arrostii Guss. var. nebulosa” (Bioorg Med Chem, 2013).

Data set [1] relates to ECV-304. In words: Induction of type I ribosome-inactivating protein-mediated cytotoxicity of human ECV304 cells measured at 15 ug/ml after 72 hrs by XTT reduction assay. It counts as functional, cell-based. In general terms: Tetrazolium dyes change colour on reduction, which living cells bring about.
The subject of data set [2] is ECV-304. Put plainly: Cytotoxicity against human ECV304 cells at 15 ug/ml after 72 hrs by XTT reduction assay. It is filed as cell-based. As to conditions: ecv-304, 72 h.

Calls of active or inactive are those of the source. The rule behind the calls is not given here.

In the case of `C[C@@H]1O[C@@H](O[C@H]2[C@H](OC(=O)[C@]34CCC(C)(C)C[C@H]3C3=CC[C@@H]5[C@@]6(C)CC[C@H](O[C@@H]7O[C@H](C(=O)O)[C@@H](O)[C@H](O[C@@H]8OC[C@@H](O)[C@H](O)[C@H]8O)[C@H]7O[C@@H]7O[C@H](CO)[C@H](O)[C@H](O)[C@H]7O)[C@@](C)(C=O)[C@@H]6CC[C@@]5(C)[C@]3(C)C[C@H]4O)O[C@H](C)[C@@H](O)[C@@H]2O)[C@H](O)[C@H](O[C@@H]2O[C@H](CO)[C@@H](O)[C@H](O)[C@H]2O)[C@H]1O[C@@H]1OC[C@@H](O)[C@H](O[C@@H]2OC[C@@H](O)[C@H](O)[C@H]2O)[C@H]1O`, the outcome in the data set on ECV-304 [1] was Active. Besides, the Activity entry in the data set on ECV-304 [2] is “Non-toxic”.
As for `C[C@@H]1O[C@@H](O[C@H]2[C@H](OC(=O)[C@]34CCC(C)(C)C[C@H]3C3=CC[C@@H]5[C@@]6(C)CC[C@H](O[C@@H]7O[C@H](C(=O)O)[C@@H](O)[C@H](O[C@@H]8OC[C@@H](O)[C@H](O)[C@H]8O)[C@H]7O[C@@H]7O[C@H](CO)[C@H](O)[C@H](O)[C@H]7O[C@@H]7O[C@H](CO)[C@H](O)[C@H](O)[C@H]7O)[C@@](C)(C=O)[C@@H]6CC[C@@]5(C)[C@]3(C)CC4)O[C@H](C)[C@@H](O)[C@@H]2O)[C@H](O)[C@H](O[C@@H]2O[C@H](CO)[C@@H](O)[C@H](O)[C@H]2O)[C@H]1O[C@@H]1OC[C@@H](O)[C@H](O[C@@H]2OC[C@@H](O)[C@H](O)[C@H]2O)[C@H]1O`, in the data set with ECV-304 [1], the outcome was Active. Moreover, the Activity entry in the data set on ECV-304 [2] is “Non-toxic”.
